{"source": "patent US20110053995A1", "about": "“BENZENESULFONANILIDE COMPOUND INHIBITORS OF UREA TRANSPORTERS” (THE REGENTS OF THE UNIVERSITY OF CALIFORNIA, priority 2006, published 2011)", "biological_target": "T1, rat UT-A1 (Rattus norvegicus, UniProt Q62668)", "T1 construct": "expressed in transfected cells; host or cells: MDCK cells (gift of Dr. Jeffrey Sands, Emory University)", "T1 sequence (Q62668 1-929)": "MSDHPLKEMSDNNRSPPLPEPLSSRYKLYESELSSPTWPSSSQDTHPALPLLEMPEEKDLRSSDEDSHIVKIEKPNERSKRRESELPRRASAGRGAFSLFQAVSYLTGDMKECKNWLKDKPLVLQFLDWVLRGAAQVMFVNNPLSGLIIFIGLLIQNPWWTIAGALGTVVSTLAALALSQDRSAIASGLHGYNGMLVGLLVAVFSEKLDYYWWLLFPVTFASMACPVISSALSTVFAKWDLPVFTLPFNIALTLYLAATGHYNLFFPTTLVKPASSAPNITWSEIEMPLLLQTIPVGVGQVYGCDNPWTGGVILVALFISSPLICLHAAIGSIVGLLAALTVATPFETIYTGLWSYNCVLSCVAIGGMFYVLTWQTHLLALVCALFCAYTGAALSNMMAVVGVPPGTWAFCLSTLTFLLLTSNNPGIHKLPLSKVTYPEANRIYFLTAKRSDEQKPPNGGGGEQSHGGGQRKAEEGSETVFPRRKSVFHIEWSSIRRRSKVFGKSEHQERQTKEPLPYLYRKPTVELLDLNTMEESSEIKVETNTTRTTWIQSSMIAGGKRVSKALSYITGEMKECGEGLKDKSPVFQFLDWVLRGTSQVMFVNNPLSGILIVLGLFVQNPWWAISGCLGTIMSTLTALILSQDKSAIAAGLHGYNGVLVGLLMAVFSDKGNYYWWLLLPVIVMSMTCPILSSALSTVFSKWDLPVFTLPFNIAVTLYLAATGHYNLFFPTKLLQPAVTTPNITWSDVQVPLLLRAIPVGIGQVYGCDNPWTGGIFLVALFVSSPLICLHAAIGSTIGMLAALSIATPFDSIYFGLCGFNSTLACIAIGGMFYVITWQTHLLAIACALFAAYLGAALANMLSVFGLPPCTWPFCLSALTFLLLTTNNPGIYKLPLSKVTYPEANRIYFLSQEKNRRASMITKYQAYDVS", "assay": "UT-A1-facilitated urea flux across MDCK-UT-A1 cell layers", "assay_type": "cell-based", "details": "forskolin-stimulated MDCK-UT-A1 cells, 15-min time point; read-out: EC50 against rat UT-A1", "description": "Concentration-inhibition studies were performed to study the effect of the active mouse UT-B inhibitors on urea transport by UT-A. The amino acid sequences of UT-B and UT-A urea transporter isoforms share significant similarity. The cells used in these studies were MDCK cells that expressed rat UT-A1. MDCK-UT-A1-expressing cells were grown on collagen-coated porous filters until they were electrically tight, at which point 15 mM urea was introduced into buffer bathing the basolateral cell surface.\nMDCK cells stably transfected with rat UT-A1 (MDCK-UT-A1) (Fröhlich et al., Am J Physiol. in press; Fröhlich et al., Am. J. Physiol. Cell Physiol. 286:C1264-70 (2004). Epub on Jan. 28, 2004) were generously provided by Dr. Jeffrey Sands (Emory University School of Medicine, Atlanta, Ga.). Cells were grown in Dulbecco's Modified Eagle Medium (DMEM) with bicarbonate and supplemented with 10% fetal bovine serum (FBS), 25 mM HEPES buffer, penicillin G (100 U/mL), streptomycin (100 μg/mL) and hygromycin (500 μg/mL). For determining urea flux, cells were grown on 12-mm collagen-coated TRANSWELL inserts (0.4 μm pore size; Costar) as described (Fröhlich et al., Am J Physiol. in press; Fröhlich et al., 2004, supra). The TRANSWELL inserts were incubated in hygromycin-free medium for 1 hr in a 5% CO2 tissue culture incubator (37° C.), and then 2×10^5 cells/cm^2 were loaded onto each insert. Cells were used after culturing the cells for 4 days in hygromycin-free medium, at which time they formed tight monolayers (transepithelial resistance 500-600 Ω·cm^2).\nUT-A1-facilitated urea flux in the basolateral-to-apical direction across unstimulated and forskolin-stimulated MDCK-UT-A1 cell layers was measured in response to a 15-mM urea gradient. Experiments were carried out in 12-well plates in which PBS, containing either DMSO vehicle or forskolin, with or without UT-B inhibitor, added to both the apical-facing (0.2 mL) and basal-facing (1 mL) surfaces of cells on the porous filters. Cultures were incubated in the absence of urea for 30 min at 37° C. Then, the basal-facing solution was replaced with PBS (containing same components) with 15 mM urea. Five μL samples of apical fluid were collected at specified times during incubation at 37° C., and urea concentration was determined using a commercial kit based on chromogenic urea complexation at 520-nm wavelength (Quantichrom™ Urea Assay Kit, BioAssay Systems, Hayward, Calif.). Forskolin (10 μM), with or without UT-B transport inhibitors, was added from 1000× DMSO stock solutions (0.2% final DMSO content). Inhibition of UT-A1-mediated transport was defined as % inhibition=100% (Aforsk−Atest)/(Aforsk−Aphlor). Aforsk, and Aphlor were averaged absorbance values (at 520 nm) for cultures treated with forskolin and forskolin+phloretin, respectively, and Atest were values from cultures treated with forskolin+test compound."}
{"smiles": "NC(=O)CSc1oc(-c2ccccc2)nc1S(=O)(=O)c1ccc(Br)cc1", "note": "[ureainh-101]", "values": [{"measurement": "EC50", "value": "~1.2", "unit": "µM"}]}
{"smiles": "Cc1ccc(Nc2nnc(-c3ccc(C(N)=O)cc3)c3ccccc23)cc1", "note": "[ureainh-302]", "values": [{"measurement": "EC50", "value": "~15", "unit": "µM"}]}
